Like-named read-outs stand apart in the source and are kept apart here.
How the values were obtained:
[1] = Change of relative liver weight and liver findings in the 7-day oral rat study; format: in vivo, männlichen Wistar-Ratten; conditions: rat, in vivo
Description: Die erfindungsgemäßen Verbindungen haben wertvolle therapeutische Eigenschaften. So erniedrigen sie vor allem die Konzentration von LDL und VLDL, die HDL-Fraktion aber kaum, in vielen Fällen wird diese Fraktion sogar vermehrt. Diese Verbindungen stellen daher einen wesentlichen Fortschritt gegenüber der Vergleichsverbindung Clofibrat dar, wie aus .den nachfolgend beschriebenen Daten ersichtlich ist. Sie können daher zur Prophylaxe und Regression von arteriosklerotischen Veränderungen herangezogen werden, indem sie einen kausalen Risikofaktor ausschalten. Hierzu zählen nicht nur die primären Hyperlidämien, sondern auch gewisse sekundäre Hyperlipidämien wie sie z.B. beim Diabetes vorkommen. […] Die mit einer hypolipidämischen Wirkung verbundene unerwünschte Beeinflussung der Leber zeigt sich auch in sehr starkem Maße bei der in J.Med.Chem. 18 (1975) S. 833-836 beschriebenen Vergleichsverbindung 1-(4-Methylbenzyl)-imidazol. […] Die erfindungsgemäßen Verbindungen zeigen dieses unerwünschte Verhalten nicht.
(§1) Die Wirkung der angeführten Verbindungen auf die Serum- Lipoproteine wurde an männlichen Wistar-Ratten untersucht, die 7 Tage per Schlundsonde mit den angeführten in Polyäthylenglykol 400 suspendierten Verbindungen behandelt wurden. Außerdem wurde eine Kontrollgruppe, die nur das Lösungsmittel Polyäthylenglykol 400 erhielt, mitgeführt, sowie bei den meisten Versuchen eine Ratten-Gruppe mit dem Standardhypolipidämikum Clofibrat. Pro Gruppe wurden in der Regel 10 Tiere eingesetzt, denen am Ende der Behandlung das Blut nach leichter Äthernarkose aus dem Orbitalplexus entnommen wurde. Aus dem gewonnenen Ratten-Serum wurden die Serum- Lipoproteine in der präparativen Ultrazentrifuge in folgende Dichteklassen getrennt: VLDL < 1,006; LDL 1,006 bis 1,04; HDL 1,04 bis 1,21

[2] = tested on: Serum-Lipoproteine; test: Change of serum and lipoprotein-fraction cholesterol in rats after 7 days of oral treatment (ultracentrifuge fractionation, CHOD-PAP cholesterol); format: in vivo, männlichen Wistar-Ratten; conditions: for change in vivo at 100 mg/kg: Rattus norvegicus, 168 h, 100 mg/kg / Tag, oral (gavage), 7 days, male Wistar rats
Description: as §1
Da nämlich im Gegensatz zum Menschen die Serumlipoproteine der Ratte etwa 4/5 HDL-Cholesterin und nur 1/5 LDL-Cholesterin enthalten und nur sehr geringe Mengen von VLDL (beim Menschen umgekehrt etwa 2/3 LDL und VLDL und nur 1/3 bis 1/4 HDL), macht die Beurteilung einer hypolipidämischen Wir- .kung an der Ratte unbedingt eine Fraktionierung des Ratten-serums in Lipoproteinklassen erforderlich. Eine bloße Erniedrigung des Serum-Total-cholesteringehaltes an der Ratte würde nämlich nur die unerwünschte Erniedrigung der bei der Ratte vorwiegenden antiatherogenen HDL-Klasse anzeigen. Eine erwünschte Erniedrigung von LDL bei gleichzeitiger erwünschter Vermehrung von HDL hätte aber keine (wesentliche) Auswirkung auf den Totalcholesteringehalt des Ratten-Serums.
Aus den in der Ultrazentrifuge isolierten LipoproteinFraktionen wurde das darin enthaltene Cholesterin vollenzymatisch nach der CHOD-PAP-Methode mittels der Testkombination von Boehringer-Mannheim bestimmt und die Werte in µg/ml Serum umgerechnet. In der angeführten Tabelle ist die Veränderung des Lipoprotein-Cholesterins in der behandelten Gruppe gegenüber einer unter gleichen Bedingungen mitgeführten Kontrollgruppe angegeben.
Veränderung in % der Lipoproteine im Ratten-Serum nach siebentägiger oraler Applikation der Verbindungen

In the case of `CCOC(=O)C(C)(C)Oc1ccc(Cl)cc1` [Clofibrat, reference compound], the “relatives Lebergewicht” value [1] is reported as “starken Erhöhung des relativen Lebergewichts”, the change in vivo at 100 mg/kg ([2]; read-out: Cholesterolveränderung in %, bezogen auf die Kontrollgruppe im Serum) is reported as -29% and the change in vivo at 100 mg/kg ([2]; read-out: Cholesterolveränderung in %, bezogen auf die Kontrollgruppe in den Serum-Lipoprotein-Fraktionen HDL) is reported as -34%. For the same compound, the change in vivo at 100 mg/kg ([2]; read-out: Cholesterolveränderung in %, bezogen auf die Kontrollgruppe in den Serum-Lipoprotein-Fraktionen LDL) was -18%, the change in vivo at 100 mg/kg ([2]; read-out: Cholesterolveränderung in %, bezogen auf die Kontrollgruppe in den Serum-Lipoprotein-Fraktionen VLDL) was -48% and the “Wirkung auf die Lipoproteinfraktionen (VLDL, LDL, HDL)” value ([2]; statement in words summarising the table, rat serum, 7 days oral) was “stärkere Verminderung der HDL- als der LDL-Fraktion”.

Source: patent publication EP0104572A1, “Benzyl ethers of phenol Mannich bases, process for their production, their use and pharmaceutical preparations based on these compounds, intermediates and process for their production” (priority 1982, dated 1984)
